# Columns and labels:
# [1] = test system: Muc5ac mucin from porcine airway mucus; experiment: Mucolytic effect on Muc5ac mucin from porcine airway mucus (western blot, densitometry); assay type: biochemical; details: 2 mM, 30 mins at 37° C.; compound preincubated in HCO3-Ringer, HCO3-Ringer/acetic acid or acetate buffer pH 4.5
# Procedure: (§1) (Upper panel) Identification of Muc5ac mucin (black arrow) by western blot, from airway mucus sample collected in HCO3-Ringer and treated with or without 2 mM of compound 646 for 30 mins at 37° C. Lane CTRL, untreated sample as control. Lane Bic, sample treated with compound preincubated in HCO3-Ringer; lane Bic/Ac, sample treated with compound preincubated with 1:1 HCO3-Ringer/Acetic acid 0.1N; lane Ac, sample treated with compound preincubated in acetate buffer 1M, pH 4.5. Lower panel, densitometric analysis of the protein bands identified with the Muc5ac mucin antibody. Densitometric signal of the sample control (CTRL) was normalized as 100% (% arbitrary units).
# as §1, with “647” for “646”, “4.5, as described under Methods.” for “4.5.”, “units). Control is pH 8, Bic 7.4, Bic/AC 6.9 AND AC 6.2” for “units).”
# as §1, with “655” for “646”
# as §1, with “compounds 656” for “compound 646”
# secreted Muc5ac mucin = experiment: Mucolytic activity on secreted Muc5ac mucin of open porcine trachea sections (western blot); details: 2 mM, HCO3-Ringer with PGE2 (1 uM), 10 minutes at 37° C.; FIG. 18
# Procedure: FIG. 18 provides the mucolytic activity of compounds on secreted Muc5ac mucin. Epithelial luminal surface of open porcine trachea sections (˜2 cm^2) were covered with HCO3-Ringer solution ([…]) containing PGE2 (1 uM), and alcian blue (0.02%), with or without compounds at a 2 mM final concentration, and incubated for 10 minutes at 37° C. Equal volumes of each collected sample were separated on vertical electrophoresis, and then transfer to an immobilon-P membrane for western blot analysis. […] Densitometric signal of the untreated sample, as control, was normalized to 100% (% arbitrary units).
# Epithelial luminal surface of open porcine trachea sections (˜2 cm^2) were covered with […] of HCO3-Ringer solution containing PGE2 (1 uM), in the presence or absence of compounds at a 2 mM final concentration, and incubated for 5 minutes at 37° C. Afterwards, […] of sterile 7% NaCl inhaled solution was added and incubated for another 5 mins at 37° C. Equal volumes of each collected sample were separated on vertical electrophoresis, and then transferred to an immobilon-P membrane for western blot analysis. […] Densitometric signal of the non-treated sample, as control, was normalized to 100% (% arbitrary units).
# porcine airway = experiment: Ex vivo porcine airway models (summary statement)
# Description: Abnormal mucus accumulation in airways has deleterious, and fatal consequence in patients suffering from respiratory obstructive diseases, such as cystic fibrosis (CF), COPD and asthma. Therefore, there is a need for therapies aimed at decreasing mucus accumulation to facilitate airway mucus clearance.
substance,measurement,setting,value
2-aminoethane-1-d-1-thiol hydrochloride [Compound 646],influence of acidic and basic conditions on mucolytic activity on porcine Muc5ac mucin,[1],enhanced under acidic conditions
same,native Muc5ac levels on epithelial luminal surfaces (immunoblot),secreted Muc5ac mucin,decreased native Muc5ac levels
same,accumulation of viscous mucus and mucociliary clearance,porcine airway,prevented accumulation of viscous mucus and improves mucociliary clearance

# — US12576051B2, “Methods and composition for treating respiratory obstructive diseases” (The Regents of the University of California, priority 2019, dated 2026)
